Assay results published in patent US20130096160A1, “ARYLTHIAZOLYL PIPERIDINES AND RELATED COMPOUNDS AS MODULATORS OF SURVIVAL MOTOR NEURON (SMN) PROTEIN PRODUCTION” (Secretary, Department of Health and Human Services, priority 2010, published 2013).

Columns and labels:
human SMN protein = assay: Western blot of SMN protein in SMA patient fibroblasts (3813); type: cell-based; conditions: SMA patient cells (3813), 0.1-10 μM, FIG. 2
Method: Type I spinal muscular atrophy (SMA)-affected human primary fibroblasts (#GM03813) and carrier parents (#GM03814, parent and #GM03815, […]) are obtained live with low passage number from Coriell Cell Repositories. […] For detection of SMN protein in patient fibroblasts, 8,000 cells per cm^2 are plated 24 hours prior to drug addition. Fresh media and compound are added every 24 hours. After 72 hours, cells are harvested, washed with cold PBS, and lysed. Samples are subjected to polyacrylamide gel electrophoresis (PAGE). It is determined that 10 μg total protein per lane is within the linear range for immunoblot detection of SMN and alpha-tubulin. Western blots of the gel are probed for SMN with the 4B7 mouse monoclonal antibody (from the lab of Christian Lorson). A goat anti-mouse antibody (Santa Cruz Biotechnology/#sc-2005) conjugated to horseradish peroxidase (HRP) is used as the secondary antibody. Quantification of protein is performed by detecting chemiluminescence with a Fujifilm LAS-4000 Multifunctional Imaging System. […] We incubated a fibroblast cell line from a type I SMA patient (3813 cell line) with different doses of analogues and assessed the SMN protein level by quantitative western blotting (FIG. 4). We observed that analogue 8 m at concentration of 37 nanomolar increased the SMN protein level by 2-3 fold. […] This could be due with the intrinsic mechanism of action or to other causes, such us concentration dependent compound solubility.

CaCo-2 cells = assay: in vitro; type: in vitro ADME
Method: CaCo-2 cells grown in tissue culture flasks are trypsinized, suspended in medium, and the suspensions are applied to wells of a collagen-coated BioCoat Cell Environment in 24-well format (BD Biosciences) at 24,500 cells per well. The cells are allowed to grow and differentiate for three weeks, feeding at 2-day intervals.
For Apical to Basolateral (A->B) permeability, the test agent is added at 50 μM to the apical (A) side and amount of permeation is determined on the basolateral (B) side; for Basolateral to Apical (B>A) permeability, the test agent is added at 50 μM to the B side and the amount of permeation is determine on the A side. The A-side buffer contains 100 μM Lucifer yellow dye, in Transport Buffer (1.98 g/L glucose in 10 mM HEPES, 1× Hank's Balanced Salt Solution) pH 6.5, and the B-side buffer is Transport Buffer, pH 7.4. CaCo-2 cells are incubated with these buffers for 2 h., and the receiver side buffer is removed for analysis by liquid chromatography-mass spectrometry (LC/MS/MS).
Additionally, several control compounds are tested in the identical assay.
To verify that CaCo-2 cell monolayers are properly formed, aliquots of the cell buffers are analyzed by fluorescence to determine the transport of the impermeable dye Lucifer Yellow.
Data are expressed as permeability (Papp): […]
where dQ/dt is the rate of permeation, C0 is the initial concentration of test agent, and A is the area of the monolayer.
In bidirectional permeability studies, the asymmetry index (AI) or efflux ratio is also calculated:
An AI>1 indicated a potential substrate for PGP or other active transporters.
Samples are analyzed by LC/MS/MS using either an Agilent 6410 mass spectrometer coupled with an Agilent 1200 high performance liquid chromatography (HPLC) and a CTC PAL chilled autosampler, all controlled by MassHunter software (Agilent), or an ABI2000 mass spectrometer coupled with an Agilent 1100 HPLC and a CTC PAL chilled autosampler, all controlled by Analyst software (ABI). After separation on a C18 reverse phase HPLC column (Agilent, Waters, or equivalent) using an acetonitrile-water gradient system, peaks are analyzed by mass spectrometry (MS) using electrospray ionization (ESI) in multiple reaction monitoring (MRM) mode.
The signal is optimized for each compound by ESI positive or negative ionization mode. A MS2 selected ion monitoring (SIM) scan is used to optimize the precursor ion and a product ion analysis is used to identify the best fragment for analysis and to optimize the collision energy.

Caco-2 permeability (in words) (CaCo-2 cells): highly permeable
Pgp substrate (in words) (CaCo-2 cells): no indication of being a Pgp substrate
mean A->B Papp (CaCo-2 cells): 32.6 10^−6 cm s^−1
mean B->A Papp (CaCo-2 cells): 12.0 10^−6 cm s^−1
SMILES: NC(=O)C1CCN(c2nc(-c3ccc(Br)cc3)cs2)CC1 [MLS000698854]
SMN protein by Western blot (in words) (human SMN protein): concentration-dependent increase in SMN protein
